Read-outs that look alike come from different tables or passages of the source. Square brackets hold non-standard residues; d marks the D form. Peptide text beside a SMILES is read from it. pGlu = O=C1CC[C@@H](C(=O)O)N1
Experiments:
p45 Metalloprotease [1] = target: T1, p45 Metalloprotease (Fusarium oxysporum, UniProt M1UZ70); conditions: 1M NaCl; FIG. 11
[2] = target: trypsin-like F. oxysporum protease (Fusarium oxysporum, UniProt P35049); conditions: 2M NaCl; FIG. 11
bacterial thermolysins = conditions: 1M NaCl
Experimental: FTC-casein (20 microliters, 0.5% w/w in 50 mM Tris-Cl, pH 7.2), NaCl (0-2M) in trypsin-like F. oxysporum protease sample buffer, and either trypsin-like F. oxysporum protease (10 microliters, 1.8 ug) or p45 metalloprotease (10 microliters, 0.33 ug) are added to trypsin-like F. oxysporum protease sample buffer to a total volume of 50 microliters. Samples are incubated at room temperature for 30 minutes. At the end of the incubation, 150 microliters of 5% (w/v) trichloroacetic acid is added and the samples are allowed to precipitate for 60 minutes at 4° C. Samples are subsequently centrifuged (14,000 rpm, 5 minutes) and 30 microliters of supernatant are added to 3 ml of 0.5M sodium borate, pH 9.
The fluorescence of the samples is measured (Perkin-Elmer fluorimeter) using a 2.5 nm slit width, excitation at 490 nm and emission detected at 525 nm.

p45 Metalloprotease [3] = target: T1, p45 Metalloprotease; experiment: Influence of heavy metal additions on p45 metalloprotease activity (FTC-casein); type: biochemical; set-up: precursor 632 aa (18 signal, 226 pro); native or A. oryzae-expressed with same N-terminus; conditions: CoCl2 0-4 mM, p45 0.9 ug
Experimental: Samples are incubated at room temperature for 30 minutes.
It is interesting that substoichiometric levels of Zn are found after metal analysis (ICP) of the p45 metalloprotease. It appears that zinc levels are only 5% of that expected based on the level of p45 metalloprotease in the sample. No other heavy metal (i.e. Cd, Cr, Co, Cu, Mo, Ni, Li, […], Fe, Mn, As, Pb, or Se) is present in the p45 maturase sample.

[4] = system: Fusarium oxysporum metalloprotease; experiment: Inhibition of Fusarium metalloprotease with 1,10-phenanthroline / EDTA and reactivation with Zn2+; type: biochemical; conditions: inhibitor 1 mM
Experimental: (§1) Metalloprotease activity is measured as released trypsin activity from pro-trypsin-like Fusarium oxysporum protease deposited at the Deutsche Sammlung von Mikroorganismen, Gottingen, Germany under the number DSM 2672, after a 30-60 min pre-incubation at 25° C. in 0.1M Tris, 2 mM CaCl2, pH 7 (at lower pH, 100 mM borate, 10 mM DMG, 2 mM CaCl2 is used).
(§2) Metalloproteases contain a catalytic zinc metal center which participates in the hydrolysis of the peptide backbone. The active zinc center differentiates these proteases from calpains whose activities are dependent upon the presence of calcium. Confirmation of a protease as a metallo-protease is loss of proteolytic activity accomplished by removal of the zinc center with 1,10-phenanthroline (1 mM) followed by titration with Zn^2+ (0.1-100 μM) to restore full activity.
(§3) However, when combined the metalloprotease cleaves recombinant pro-trypsin-like Fusarium oxysporum protease disclosed, supra to yield the active tryptic protease. Metalloprotease activity is halted upon the addition of 1 mM 1,10-phenanthroline (Table 1).

[5] = target: T2, trypsin-like Fusarium oxysporum protease (Fusarium oxysporum, UniProt P35049); experiment: Effect of 1,10-phenanthroline on tryptic activity (L-BAPNA); type: biochemical; conditions: 1,10-phenanthroline 1 mM
T2 construct: the metalloprotease cleaves recombinant pro-trypsin-like Fusarium oxysporum protease disclosed, supra to yield the active tryptic protease; made in house; host or cells: Aspergillus oryzae (IFO 4177), plasmid pSX183
Experimental: as §1, §3

[6] = system: Bacillus stearothermophilus thermolysin; experiment: Inhibitor analysis of B.s. thermolysin; type: biochemical; conditions: for Ki: read-out: Inhibition Constant (Ki), B.s. Thermolysin
Experimental: (§4) Other metalloprotease inhibitors are utilized to further differentiate the p45 metalloprotease from the Bacillus thermolysins. Inhibition constants for 1,10-phenanthroline, phosphoramidon, and CdCl2 are determined to be 130 uM, 1 uM, and 67 uM against the p45 Metalloprotease (Table 3). Inhibition constants for 1,10-phenanthroline, phosphoramidon, and CdCl2 are 85 uM, 26 uM, and 2 uM against the Bacillus stearothermophilus thermolysin. […] It is of interest to note that phophoramidon is an effective inhibitor of many bacterial metallo-endopeptidases but few of mammalian origin. Also, it is interesting that CdCl2 is found to be such an effective inhibitor of metalloproteases. No evidence of CdCl2 inhibition of metalloproteases has been found in the literature.

p45 Metalloprotease [7] = target: T1, p45 Metalloprotease; experiment: Inhibitor analysis of the p45 metalloprotease; type: biochemical; set-up: precursor 632 aa (18 signal, 226 pro); native or A. oryzae-expressed with same N-terminus
Experimental: as §4

p45 Metalloprotease [8] = target: T1, p45 Metalloprotease; experiment: Effect of the pentapeptide on processing of pro-trypsin-like protease by p45; type: biochemical; set-up: precursor 632 aa (18 signal, 226 pro); native or A. oryzae-expressed with same N-terminus; conditions: 45-minute pre-incubation at room temperature
Experimental: After a 45-minute pre-incubation at room temperature with gentle shaking, the mixtures are diluted 500-fold and assayed for trypsin-like F. oxysporum protease activity.

[9] = target: neutral metalloprotease from Bacillus stearothermophilus (Bacillus stearothermophilus); experiment: enzyme inhibition, kinetic analysis of B.s. thermolysin activity
[10] = target: T3, p45 metalloprotease from Fusarium oxysporum (Fusarium oxysporum); experiment: enzyme inhibition, kinetic analysis of p45 activity
T3 chain: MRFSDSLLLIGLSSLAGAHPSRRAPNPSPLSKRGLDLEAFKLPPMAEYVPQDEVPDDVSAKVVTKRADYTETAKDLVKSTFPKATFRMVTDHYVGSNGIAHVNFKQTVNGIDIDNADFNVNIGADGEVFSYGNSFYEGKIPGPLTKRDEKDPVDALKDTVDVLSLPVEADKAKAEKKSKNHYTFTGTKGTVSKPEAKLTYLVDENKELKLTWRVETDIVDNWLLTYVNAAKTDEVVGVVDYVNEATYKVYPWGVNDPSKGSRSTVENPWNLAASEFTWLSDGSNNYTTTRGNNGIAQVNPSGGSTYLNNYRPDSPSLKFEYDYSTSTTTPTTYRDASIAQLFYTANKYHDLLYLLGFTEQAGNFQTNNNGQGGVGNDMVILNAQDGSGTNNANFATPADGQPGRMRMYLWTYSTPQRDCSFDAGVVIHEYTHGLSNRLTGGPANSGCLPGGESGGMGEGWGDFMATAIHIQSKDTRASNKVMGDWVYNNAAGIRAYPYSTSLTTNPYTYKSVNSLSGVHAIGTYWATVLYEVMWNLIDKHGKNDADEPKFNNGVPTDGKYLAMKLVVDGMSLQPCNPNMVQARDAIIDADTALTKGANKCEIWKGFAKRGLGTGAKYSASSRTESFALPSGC

FTC-labeled casein [11] = conditions: scale: fold
[12] = system: pro-trypsin-like Fusarium oxysporum protease; experiment: Proteolytic enzyme assay: tryptic activity released from pro-trypsin-like protease, L-BAPNA, 405 nm; type: biochemical
Experimental: as §1, §2, §3

FTC-labeled casein [13] = experiment: pH profile, FTC-casein hydrolysis; type: biochemical
Experimental: Purified p45 metalloprotease (10 microliters, 0.005 mg/ml) is added to 30 microliters of Universal pH buffer (pH 5-11.5), and 20 microliters of FTC-labeled casein are incubated at 37° C. for 1-hour. 150 microliters of 5% TCA is added to acidify and precipitate casein (1-hour at room temperature). […] Samples are then analyzed on the fluorimeter (slit width=2.5 nm; excitation freq.=490 nm; emission freq.=525 nm; integration time=2 sec).

[Cl-].[Na+] [NaCl]
inhibition of p45 metalloprotease activity (p45 Metalloprotease [1]): 85%
inhibition of trypsin-like F. oxysporum protease activity [2]: 25%
inhibition of bacterial thermolysins (bacterial thermolysins): 38%

[Cl-].[Cl-].[Co+2] [CoCl2]
enhancement of p45 metalloprotease activity (p45 Metalloprotease [3]): no enhanced activity

c1cnc2c(c1)ccc1cccnc12 [1,10-phenanthroline]
metalloprotease activity upon addition of the inhibitor [4]: halted
inhibition of trypsin-like protease [5]: not inhibited
type of inhibition, B.s. Thermolysin ([6]; kinetic analysis): Noncompetitive
Ki [6]: 85 µM
Ki (p45 Metalloprotease [7]): 130 µM
type of inhibition, p45 Maturase (p45 Metalloprotease [7]; kinetic analysis): Noncompetitive

CC[C@H](C)[C@H](NC(=O)[C@H](CCC(=O)O)NC(=O)[C@@H]1CCC(=O)N1)C(=O)N1CCC[C@H]1C(=O)N[C@@H](CC(N)=O)C(=O)O [<E-E-I-P-N, pyroGlu-Glu-Ile-Pro-Asn-COOH] ([pGlu]EIPN-OH)
Ki ([6]; no effect): > 5000 µM
Ki (p45 Metalloprotease [7]): > 5000 µM
effect of the pentapeptide on p45 metalloprotease activity (p45 Metalloprotease [8]): not an inhibitor of p45 metalloprotease activity

synthetic pentapeptide pyroGlu-Glu-Ile-Pro-Asn-COOH
Ki [9]: > 5000 µM

B1: synthetic pentapeptide pyroGlu-Glu-Ile-Pro-Asn-COOH (peptide)
peptide: [pGlu]EIPN-OH
SMILES: CC[C@H](C)[C@H](NC(=O)[C@H](CCC(=O)O)NC(=O)[C@@H]1CCC(=O)N1)C(=O)N1CCC[C@H]1C(=O)N[C@@H](CC(N)=O)C(=O)O
Ki [10]: > 5000 µM

B2: trypsin-like Fusarium oxysporum protease (enzyme)
chain: IVGGTSASAGDFPFIVSISRNGGPWCGGSLLNANTVLTAAHCVSGYAQSGFQIRAGSLSRTSGGITSSLSSVRVHPSYSGNNNDLAILKLSTSIPSGGNIGYARLAASGSDPVAGSSATVAGWGATSEGGSSTPVNLLKVTVPIVSRATCRAQYGTSAITNQMFCAGVSSGGKDSCQGDSGGPIVDSSNTLIGAVSWGNGCARPNYSGVYASVGALRSFIDTYA
hydrolysis of FTC-casein at pH 9 (FTC-labeled casein [11]): 16
Tryptic Activity ([12]; with 1,10-phenanthroline (1 mM), without Zn2+): 33.8 Δ Abs/min × 10^-4
Tryptic Activity ([12]; with inhibitor (1,10-phenanthroline) addition): 33.8×10^-4 ΔAbs/min
Tryptic Activity ([12]; without 1,10-phenanthroline, without Zn2+): 34.0 Δ Abs/min × 10^-4
Tryptic Activity ([12]; without inhibitor addition): 34.0×10^-4 ΔAbs/min
pH at which the protease functions optimally (FTC-labeled casein [13]): ~9.5

— US5807729A, “Metalloprotease having increased activity” (Novo Nordisk A/S, priority 1995, dated 1998)
